Values of other authors as cited in US20210198628A1, “BASAL MEDIA FOR GROWING NK-92 CELLS” (NantKwest, Inc., priority 2018, published 2021).

Settings: in vivo

CC[C@H](C(=O)N1CCCC[C@H]1C(=O)O[C@H](CCc1ccc(OC)c(OC)c1)c1cccc(OCC(=O)NCCNC(=O)COc2cccc([C@@H](CCc3ccc(OC)c(OC)c3)OC(=O)[C@@H]3CCCCN3C(=O)[C@@H](CC)c3cc(OC)c(OC)c(OC)c3)c2)c1)c1cc(OC)c(OC)c(OC)c1 [AP1903]
tolerability in clinical studies: well tolerated
